Key:
Igf2bp2 = target: T1, Igf2bp2 (Homo sapiens, UniProt Q9Y6M1); test: MST binding to Igf2bp2; conditions: even at concentrations that almost saturate binding to Igf2bp1
T1 construct: His tag (C); made in house; host or cells: E. coli BL21(DE3)

Igf2bp1 KH34 di-domain = target: T2, Igf2bp1 KH34 di-domain (Homo sapiens, UniProt Q9NZI8); test: MST binding to Igf2bp1 di-domain KH34
T2 construct: KH34 (P387-A574); 6xHis (N, cleaved yes); made in house; host or cells: E. coli BL21(DE3)
Description: (§1) Recombinant full-length Igf2bp1 protein was labelled with RED-tris-NTA dye using a Monolith NT His-Tag Labelling Kit (NanoTemper) while RRM12, KH12 and KH34 di-domain peptides were labelled using the Protein Labeling Kit RED NHS 2nd generation (NanoTemper). Labelled proteins were spun at 15,000 g for 5 min to eliminate aggregates. All samples were 2× labelled protein mix of Igf2bp1 (200 nM) in PBST and were combined (1:1) with serial dilutions of compound or Kras6 RNA in binding buffer (10 mMTris pH=7.5, 100 mM NaCl, 0.1 mM EDTA, 0.06% IPEGAL, 0.02 μg/μL tRNA, 2 mM DTT, 0.1 μg/μL heparin) in final volume of 20 μL, room temperature for 15 min. Samples were then loaded into standard capillaries (NanoTemper) and read in the Monolith NT.115 scanner (NanoTemper) using the red filter with reading conditions of 95% LED power and 40% MST power, 5 sec fluorescence before, 30 sec MST on, 5 sec fluorescence after and 25 sec delay between samples. Results were analyzed using the MO Control software (NanoTemper) for curve fitting to KD.

H1299 cells [1] = test: Real-time PCR of steady state RNA levels in H1299 cells; type: cell-based, human
Description: Primers were calibrated for several Igf2bp1 RNA targets (Table 3): […]
Cells were grown for 12 hours in 12 well plates prior to incubation with the compound at different concentrations for an additional 12 or 24 hours. Total RNA was then extracted using EZ-RNA total RNA isolation kit (Biological Industries) and cDNA prepared from the RNA using the First Strand cDNA Synthesis kit (Quanta bio). Real time PCR was performed with Fast SYBR Green Master Mix (Thermo Fisher Scientific), and cDNA expression analyzed with the Bio-Rad CFX Manager 3.1.

[2] = test system: Igf2bp1 split-luciferase reporter in RKO cells; test: Split-luciferase assay of Igf2bp1 dimerization in RKO cells; type: cell-based; parameters: dose or concentration left out as unconfirmed
Description: Vectors expressing different fragments of split luciferase reporters with flexible linker were procured from Addgene (catalog #58786, 58787, 58788 and 58789). The vectors were digested with EcoRI and XhoI. EcoRI and XhoI restriction enzyme sites were added to 5′ and 3′ ends of the coding region of IGF2BP1 respectively using PCR. The inventors constructed four split luciferase reporter vectors by cloning IGF2BP1 in different orientation with the luciferase fragments (FIG. 8B). Primers used for the amplification of IGF2BP1 were: […]
The RKO cells were seeded in DMEM with 10% calf serum 24 hrs prior to the transfection. Transfection was done using Lipofectamine 2000 with reporter plasmids and Renilla-luciferase expressing vector (as internal control). After 24 hrs, cells were lysed using passive lysis buffer (Promega catalog #E1941). The lysates were cleared by centrifugation and its […] volume was mixed with […] of luciferase substrate solution for luminescence recording which was followed by addition of […] of Stop-glo solution (Promega catalog #E1910) with an additional luminescence reading. Both readings were detected by using GloMax 20/20 Luminometer (Promega), and the final value for each sample was the ratio of their two respective readings. […]

Igf2bp1 KH12 di-domain = target: T3, Igf2bp1 KH12 di-domain (Homo sapiens, UniProt Q9NZI8); test: MST binding to Igf2bp1 di-domain KH12
T3 construct: KH12 (V194-N369); 6xHis/GST (N, cleaved yes); made in house; host or cells: E. coli BL21(DE3)
Description: as §1

La binding to Bcl2 RNA = La binding to Bcl2 RNA (Homo sapiens, UniProt P05455); test: FP counter assay, La binding to Bcl2 RNA
H1299 cells [3] = test: Cytotoxicity and cell viability, H1299 cells; type: cell-based, human; parameters: Cell viability: dose or concentration left out as unconfirmed
HEK293 cells = test: Cell proliferation assay (Incucyte), HEK293 cells; type: cell-based, human; parameters: dose or concentration left out as unconfirmed; conditions: HEK293, 7773
Description: (§2) ES2, H1299 and HEK293 cells were seeded in a 96 well plate (5×10^3 cells per well) for 24 hours before adding the compound at increasing concentrations. After an additional 24 hours, the plate was incubated in an IncuCyte® S3 Live-Cell Analysis System (Essen BioScience). The wells were filmed for 72 hours, and then analyzed for proliferation rate Using IncuCyte® S3 Live-Cell Analysis System (Essen BioScience)

H1299 cells [4] = test: Cell proliferation assay (Incucyte), H1299 cells; type: cell-based, human; conditions: H1299, up to 20 mM 7773
Description: as §2

Igf2bp1 = target: T4, Igf2bp1 (Homo sapiens, UniProt Q9NZI8); test: Microscale thermophoresis (MST) binding to full-length Igf2bp1; conditions: full-length protein, unit printed μM
T4 construct: Recombinant full-length Igf2bp1 protein; made in house; host or cells: E. coli BL21(DE3)
Description: as §1

La = La (Homo sapiens, UniProt P05455); test: MST binding to control RNA binding protein La
[5] = test system: LKR-M cells transfected with GFP alone; test: Wound healing assay, LKR-M cells expressing GFP alone; type: cell-based, mouse; conditions: 20 mM 7773 vs DMSO
Description: (§3) Cells were seeded in 96 IncuCyte® ImageLock plates (20×10^3 cells per well) for 24 hours, to a near confluency of 95%, before the addition of increasing concentrations of compound. After a further 24 hours, wells were scratched using the IncuCyte® 96-well WoundMaker Tool, and the cells cultured for an additional 48 hours using the IncuCyte® S3 Live-Cell Analysis System (Essen BioScience). The plate was imaged at increments of 120 minutes for a period of 48 hours, and then analyzed for relative wound healing.

H1299 cells [6] = test: Wound healing (cell migration) assay, H1299 cells; type: cell-based, human
Description: as §3

Sequence of La binding to Bcl2 RNA (P05455 whole entry): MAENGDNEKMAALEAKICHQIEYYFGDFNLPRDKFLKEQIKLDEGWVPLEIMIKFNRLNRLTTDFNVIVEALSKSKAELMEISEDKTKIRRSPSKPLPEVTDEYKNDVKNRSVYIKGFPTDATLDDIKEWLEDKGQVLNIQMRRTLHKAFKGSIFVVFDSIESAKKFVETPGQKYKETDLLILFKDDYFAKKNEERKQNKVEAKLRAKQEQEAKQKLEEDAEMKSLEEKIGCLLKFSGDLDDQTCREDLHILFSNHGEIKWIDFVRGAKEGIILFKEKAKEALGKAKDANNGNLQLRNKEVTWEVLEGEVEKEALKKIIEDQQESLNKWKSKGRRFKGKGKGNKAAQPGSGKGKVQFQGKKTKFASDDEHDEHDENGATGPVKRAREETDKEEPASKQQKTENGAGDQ
T1 sequence (Q9Y6M1 whole entry, species assumed): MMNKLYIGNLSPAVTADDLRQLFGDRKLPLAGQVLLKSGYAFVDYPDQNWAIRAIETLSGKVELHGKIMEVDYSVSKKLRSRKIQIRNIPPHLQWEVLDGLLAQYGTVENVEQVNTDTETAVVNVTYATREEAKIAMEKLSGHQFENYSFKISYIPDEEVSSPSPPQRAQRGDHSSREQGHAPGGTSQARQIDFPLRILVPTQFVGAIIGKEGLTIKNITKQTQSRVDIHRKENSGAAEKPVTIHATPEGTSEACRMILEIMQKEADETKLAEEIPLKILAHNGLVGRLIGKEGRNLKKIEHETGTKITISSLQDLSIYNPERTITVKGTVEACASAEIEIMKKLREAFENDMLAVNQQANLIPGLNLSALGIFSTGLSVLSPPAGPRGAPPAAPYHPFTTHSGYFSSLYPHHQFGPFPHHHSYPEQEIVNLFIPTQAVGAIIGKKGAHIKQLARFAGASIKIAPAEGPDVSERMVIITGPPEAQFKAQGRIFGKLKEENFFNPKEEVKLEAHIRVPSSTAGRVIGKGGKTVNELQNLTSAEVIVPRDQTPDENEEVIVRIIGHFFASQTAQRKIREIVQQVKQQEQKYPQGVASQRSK
T2 sequence (Q9NZI8 387-574): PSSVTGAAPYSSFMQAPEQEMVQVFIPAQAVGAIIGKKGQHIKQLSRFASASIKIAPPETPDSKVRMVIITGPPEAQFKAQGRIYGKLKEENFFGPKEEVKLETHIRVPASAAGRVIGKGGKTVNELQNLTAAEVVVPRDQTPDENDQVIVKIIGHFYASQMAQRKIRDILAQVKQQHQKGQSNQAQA
Sequence of La (P05455 whole entry): as the sequence (P05455 whole entry) above
T3 sequence (Q9NZI8 194-369): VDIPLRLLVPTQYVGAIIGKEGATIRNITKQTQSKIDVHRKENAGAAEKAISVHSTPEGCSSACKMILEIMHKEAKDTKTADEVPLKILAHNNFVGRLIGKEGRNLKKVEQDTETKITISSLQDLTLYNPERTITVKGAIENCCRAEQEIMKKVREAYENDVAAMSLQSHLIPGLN
T4 sequence (Q9NZI8 whole entry): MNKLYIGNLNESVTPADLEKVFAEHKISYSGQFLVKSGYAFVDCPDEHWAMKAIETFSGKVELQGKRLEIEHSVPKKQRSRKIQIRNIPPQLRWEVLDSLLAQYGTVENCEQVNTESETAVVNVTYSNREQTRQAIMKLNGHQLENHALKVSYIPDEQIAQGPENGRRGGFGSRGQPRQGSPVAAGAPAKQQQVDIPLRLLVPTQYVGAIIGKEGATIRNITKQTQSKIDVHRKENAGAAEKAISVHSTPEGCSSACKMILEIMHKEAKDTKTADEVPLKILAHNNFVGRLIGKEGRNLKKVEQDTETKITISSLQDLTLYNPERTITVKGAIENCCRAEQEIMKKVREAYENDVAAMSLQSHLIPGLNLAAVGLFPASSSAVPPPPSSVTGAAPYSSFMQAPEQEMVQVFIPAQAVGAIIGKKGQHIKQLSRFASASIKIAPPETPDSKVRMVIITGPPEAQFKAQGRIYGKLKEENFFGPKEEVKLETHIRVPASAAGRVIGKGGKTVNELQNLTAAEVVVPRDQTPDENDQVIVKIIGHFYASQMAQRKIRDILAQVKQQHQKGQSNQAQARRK

- Binding to Igf2bp2 (MST) (Igf2bp2): did not significantly bind
- Kd (Igf2bp1 KH34 di-domain): 7.2 µM
- Binding to KH12 (MST) (Igf2bp1 KH12 di-domain): no binding
- Effect on control RBP (La) binding to its target (Bcl2 RNA) (La binding to Bcl2 RNA; FP): almost no effect
- IC50 (La binding to Bcl2 RNA; FP control, n=3, read-out: IC50 for inhibition of La binding to Bcl2 RNA): > 100 µM
- Kd (Igf2bp1): 17 µM
- Binding to La (MST) (La): no binding
SMILES: O=C(c1ccc(Cn2cnnn2)cc1)N1CCCC(Nc2ccc3c(c2)OCO3)C1 (stereo not drawn) [Compound 7773]
- Steady state level of Kras mRNA (H1299 cells [1]; H1299, 20 mM 7773, 12 hours): already reduced
- Steady state levels of CD44, Kras, cMyc and SRF RNA (H1299 cells [1]; H1299, 20 mM 7773, 24 hours): significantly reduced
- Steady state levels of control RNAs (not targets of Igf2bp1) (H1299 cells [1]; H1299, 20 mM 7773, 24 hours): not significantly affected
- Split-luciferase luminescence [2]: significantly reduced luminescence
- Cytotoxicity (H1299 cells [3]; H1299, 20, 10 or 5 mM 7773, 48 hours): virtually no effect
- Cell viability (H1299 cells [3]; H1299, 7773, 48 hours): does not affect
- Cell proliferation (HEK293 cells): remarkably unaffected
- Cell proliferation (H1299 cells [4]): remarkably unaffected
- Effect on migration of cells expressing GFP alone [5]: unaffected
- Inhibition of wound healing (H1299 cells [6]; H1299, 5 mM 7773): discernible inhibition
- Inhibition of wound healing (H1299 cells [6]; H1299, 20 mM 7773): strongly inhibited

Source: US20240025886A1, “INHIBITORS OF IGF2BP1-RNA BINDING” (YISSUM RESEARCH DEVELOPMENT COMPANY OF THE HEBREW …, priority 2020, published 2024)
